The text below walks through data of PMC6747274, “Multifunctional Peptides from Spanish Dry-Cured Pork Ham: Endothelial Responses and Molecular Modeling Studies” (International Journal of Molecular Sciences, 2019).

For one experiment, the target named is human ACE (Homo sapiens, UniProt P12821). Kind of experiment: Human ACE inhibition assay (lysate of ACE-transfected EA.hy926 cells, HHL substrate, HPLC).
Experiment [1] has as its system VCAM-1 mRNA, EA.hy926 cells. The experiment can be described thus: VCAM-1 mRNA expression by RT-PCR in EA.hy926 cells. Format: cell-based, human. Conditions: 300 µM peptide 16 h, then 100 ng/mL TNF-α 6 h; p = 0.01 (BP2), 0.03 (BP3), 0.02 (BP4). The method, then:
(§1) EA.hy926 cells, the hybrid human umbilical vein endothelial cell line, were obtained from the American Type Culture Collection (ATCC® CRL2922™, Rockville, MD, USA). Cells were cultured in high glucose Dulbecco’s Modified Eagle’s Medium (DMEM), containing 10% heat-inactivated fetal bovine serum (FBS, Biowest, Riverside, CA, USA) and 50 U/mL of penicillin and 50 µg/mL streptomycin (Sigma Aldrich Chemical Co., Saint Louis, MO, USA). Cells were grown in 5% CO2 in a humidified air incubator at 37 °C. Subculture was performed when 90% confluence was reached.
(§2) EA.hy926 were seeded in six-well plates at 0.25 × 10^6 cells/well in DMEM supplemented with 5% FBS. Cells were treated with 300 µM of each peptide for 16 h. Then, 100 ng/mL TNF-α or 300 µM H2O2 were added for an additional 6 h or 24 h, respectively.
(§3) Total RNA was extracted from EA.hy926 cells using 300 µL Trisure™ (Bioline, Taunton, MA, USA) reagent and Direct-zol™ RNA MiniPrep (Zymo Research Irvine, Irvine, CA, USA) according to the manufacturer’s protocol. Total RNA was reverse-transcribed into complementary DNA (Sensifast cDNATM Synthesis kit, Bioline, Taunton, MA, USA). The mRNA levels of the target genes were quantified by RT-PCR using SensiFAST SYBER Hi-ROX Kit (Bioline, Taunton, MA, USA) with StepOnePlus Real-Time PCR System (Applied Biosystems, Foster City, CA, USA). Briefly, 5 µL of 1:5 diluted cDNA was added to the qPCR reaction containing 10 μL 2X SensiFAST Mix and 400 nM of each primer in a total volume of 20 μL.
(§4) Specific and validated primers for human glyceraldehyde-3-phosphate dehydrogenase (GADPH), intercellular adhesion marker-1 (ICAM-1), vascular cell adhesion marker-1 (VCAM-1), endothelial nitric oxide synthase (eNOS), interleukin 6 (IL-6), catalase, SOD (Super Oxide Dismutase), NADPH (Nicotinamide Adenine Dinucleotide Phosphate oxidase) and Bax (proapoptosis regulator) genes were used (Sigma-Aldrich Chemical Co., Saint Louis, MO, USA). […]
(§5) The relative quantification of gene expression was determined by the comparative fold change […] method. […]

The test system of another experiment is purified rabbit ACE. Conditions: purified rabbit ACE in vitro; read-out: IC50, purified rabbit ACE (given as ACE inhibitory concentration); cited from earlier work. From the text: Numerous reports have identified stable peptides with high ACE-inhibitory activity from pork dry-cured ham after gastrointestinal digestion. Four of them were synthetized chemically (KPVAAP, KAAAATP, KPGRP, and AAATP) for the current experimental studies with human endothelial cells.

A further experiment concerns NF-κB, EA.hy926 cells. The experiment can be described thus: NF-κB dual luciferase reporter assay. The experiment is classed as cell-based, human. Conditions: 300 µM peptide 16 h, then 50 ng/mL TNF-α 6 h. Here is the method: To evaluate whether the synthetic peptides could modulate the NF-κB biological activity, a luciferase reporter assay was carried out, using the Renilla reporter as a specificity control and indicator of cell proliferation. In this study, NF-B activity was induced at a lower concentration of TNF-α (50 ng/mL) because of the high sensitivity of the approach. The normalized firefly/Renilla luciferase activity was reduced by around 25% of the activity when cells were pretreated with the BP1 (p = 0.002), BP2 (p = 0.003), and BP3 (p = 0.003) synthetic peptides (Figure 3). […] The basal activity for NF-κB was not inhibited by synthetic peptides without TNF-α stimulation (data not shown).
The dual luciferase assay has been widely used in cell lines to rapidly and accurately determine the activity of the promoter of NF-κB. […]
For luciferase reporter assays, 80,000 cells/well were seeded in 24-well plates overnight, followed by cotransfection with 0.5 μg pNF-κB:Luc/pRL-CMV at a ratio of 10:1 using 1.5 μL trans-it X2 reagent (Myrus®, Madison, WI, USA). […] NF-κB-dependent firefly luciferase activity and NF-κB-independent Renilla luciferase activity were assessed using Dual-Luciferase® Reporter Assay System (Promega, Madison, WI, USA) in a Luminometer Optocomp I (MGM Instruments). […]
In general terms: In a reporter assay the amount or activity of a reporter protein is the signal.

The subject of experiment [2] is eNOS mRNA, EA.hy926 cells. Kind of experiment: eNOS mRNA expression by RT-PCR in EA.hy926 cells. Conditions: 300 µM peptide 16 h, then 100 ng/mL TNF-α 6 h; p = 0.0003 (BP1), 0.04 (BP2). The experiment is classed as cell-based, human. Here is the method:
as §1, §2, §3, §4, §5

Where no end group is shown, it is not given here.

human ACE, sequence (P12821 30-1306): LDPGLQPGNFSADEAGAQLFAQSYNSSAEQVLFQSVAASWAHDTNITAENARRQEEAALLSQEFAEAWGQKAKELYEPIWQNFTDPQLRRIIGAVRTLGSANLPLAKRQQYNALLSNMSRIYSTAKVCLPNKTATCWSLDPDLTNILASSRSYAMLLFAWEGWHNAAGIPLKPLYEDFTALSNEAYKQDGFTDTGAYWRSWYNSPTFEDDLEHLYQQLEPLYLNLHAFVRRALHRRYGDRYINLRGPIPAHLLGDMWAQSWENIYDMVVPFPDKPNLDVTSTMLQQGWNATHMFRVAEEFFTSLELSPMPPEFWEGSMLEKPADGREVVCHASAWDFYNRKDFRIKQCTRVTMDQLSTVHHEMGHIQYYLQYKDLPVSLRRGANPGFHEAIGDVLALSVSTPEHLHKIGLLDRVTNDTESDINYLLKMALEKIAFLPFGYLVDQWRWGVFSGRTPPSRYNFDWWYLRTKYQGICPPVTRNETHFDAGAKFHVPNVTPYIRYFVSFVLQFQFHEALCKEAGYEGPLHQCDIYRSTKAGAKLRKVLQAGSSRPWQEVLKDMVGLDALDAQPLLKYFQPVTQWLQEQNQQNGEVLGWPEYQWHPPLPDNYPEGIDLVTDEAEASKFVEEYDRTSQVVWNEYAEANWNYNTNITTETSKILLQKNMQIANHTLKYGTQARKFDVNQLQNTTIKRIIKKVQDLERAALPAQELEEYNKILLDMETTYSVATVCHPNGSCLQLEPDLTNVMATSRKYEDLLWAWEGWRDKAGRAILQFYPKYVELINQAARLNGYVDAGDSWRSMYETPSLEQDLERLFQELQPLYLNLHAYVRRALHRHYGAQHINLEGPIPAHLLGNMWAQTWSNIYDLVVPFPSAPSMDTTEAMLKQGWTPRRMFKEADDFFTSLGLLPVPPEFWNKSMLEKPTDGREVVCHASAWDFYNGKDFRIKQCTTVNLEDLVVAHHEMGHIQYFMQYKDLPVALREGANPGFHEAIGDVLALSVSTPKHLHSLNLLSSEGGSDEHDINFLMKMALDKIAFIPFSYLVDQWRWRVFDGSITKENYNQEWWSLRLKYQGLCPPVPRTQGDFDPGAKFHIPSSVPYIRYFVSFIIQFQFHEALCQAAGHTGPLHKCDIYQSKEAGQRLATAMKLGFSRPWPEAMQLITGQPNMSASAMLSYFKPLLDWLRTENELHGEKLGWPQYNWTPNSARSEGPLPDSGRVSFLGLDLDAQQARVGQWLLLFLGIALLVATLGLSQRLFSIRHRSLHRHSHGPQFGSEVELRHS

On to AAATP [BP4], for which the IC50 at human ACE is above 1000 µM; in the experiment with purified rabbit ACE, 100 µM. In addition, the “VCAM-1 mRNA expression vs TNF-α stimulated cells” value in experiment [1] was “downregulated”. The “NF-κB activation (in words)” value in the experiment on NF-κB, EA.hy926 cells (BP4 p = 0.012) is recorded as “repressed by BP4 to a lesser degree”.
For KAAAATP [BP2], the figures for the IC50 on human ACE and in the experiment with purified rabbit ACE were above 1000 µM and 25.6 µM, respectively. In experiment [1], the “VCAM-1 mRNA expression vs TNF-α stimulated cells” value is on record as “downregulated”. For the same substance, the “eNOS mRNA expression vs TNF-α stimulated cells” value in experiment [2] is on record as “recovered”. In addition, in the experiment on NF-κB, EA.hy926 cells (vs TNF-α, p = 0.002 (BP1), 0.003 (BP2), 0.003 (BP3), three independent experiments), the “reduction of normalized firefly/Renilla NF-κB luciferase activity” value is “around 25%”.
